Source: patent US20230219906A1, “MACROCYCLIC-2-AMINO-3-FLUORO-BUT-3-ENAMIDES AS INHIBITORS OF MCL-1” (Janssen Pharmaceutica NV, priority 2020, published 2023)
Like-named read-outs stand apart in the source and are kept apart here.

Legend:
[1] = target: Myeloid Cell Leukemia 1(Mcl-1) (Homo sapiens, UniProt Q07820); experiment: Terbium labeled Mcl-1 HTRF binding assay with Cy5-labeled BIM BH3 peptide; settings: displacement of Cy5 Bim BH3 peptide; Ki=IC50/(1+[L]/Kd), [L]=8 nM, Kd=10 nM; 60 minutes at room temperature; read-out: Tb-MCL1 Ki
Chain of Myeloid Cell Leukemia 1(Mcl-1) (Q07820 whole entry): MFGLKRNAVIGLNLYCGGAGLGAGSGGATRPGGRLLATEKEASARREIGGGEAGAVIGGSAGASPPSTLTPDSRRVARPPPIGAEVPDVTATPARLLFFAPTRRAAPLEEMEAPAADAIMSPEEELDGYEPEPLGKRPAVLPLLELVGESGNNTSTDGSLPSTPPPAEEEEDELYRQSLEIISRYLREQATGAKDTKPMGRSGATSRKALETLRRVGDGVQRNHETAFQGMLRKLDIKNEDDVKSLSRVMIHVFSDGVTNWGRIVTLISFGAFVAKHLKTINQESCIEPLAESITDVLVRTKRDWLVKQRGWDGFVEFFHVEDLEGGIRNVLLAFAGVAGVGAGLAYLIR
Method: Terbium labeled Myeloid Cell Leukemia 1(Mcl-1) homogeneous time-resolved fluorescence (HTRF) binding assay utilizing the BIM BH3 peptide (H2N—(C/Cy5Mal) WIAQELRRIGDEFN-OH) as the binding partner for Mcl-1.
This assay evaluated inhibition of the BH3 domain: Mcl-1 interaction by measuring the displacement of Cy5-labeled BIM BH3 peptide (H2N—(C/Cy5Mal) WIAQELRRIGDEFN-OH) in the HTRF assay format.
The following assay and stock buffers were prepared for use in the assay: (a) Stock buffer: 10 mM Tris-HCl, pH=7.5+150 mM NaCl, filtered, sterilized, and stored at 4° C.; and (b) 1X assay buffer, where the following ingredients were added fresh to stock buffer: 2 mM dithiothreitol (DTT), 0.0025% Tween-20, 0.1 mg/mL bovine serum albumin (BSA). The 1X Tb-Mcl-1+Cy5 Bim peptide solution was prepared by diluting the protein stock solution using the 1X assay buffer (b) to 25 pM Tb-Mcl-1 and 8 nM Cy5 Bim peptide.
Using the Acoustic ECHO, 100 nL of 100x test compound(s) were dispensed into individual wells of a white 384-well Perkin Elmer Proxiplate, for a final compound concentration of 1× and final DMSO concentration of 1%. Inhibitor control and neutral control (NC, 100 nL of 100% DMSO) were stamped into columns 23 and 24 of assay plate, respectively. Into each well of the plate was then dispensed 10 μL of the 1X Tb-Mcl-1+Cy5 Bim peptide solution. The plate was centrifuged with a cover plate at 1000 rpm for 1 minute, then incubated for 60 minutes at room temperature with plates covered.
The TR-FRET signal was read on an BMG PHERAStar FSX MicroPlate Reader at room temperature using the HTRF optic module (HTRF: excitation: 337 nm, light source: laser, emission A: 665 nm, emission B: 620 nm, integration start: 60 μs, integration time: […]).
The BMG PHERAStar FSX MicroPlate Reader was used to measure fluorescence intensity at two emission wavelengths—665 nm and 620 nm—and report relative fluorescence units (RFU) for both emissions, as well as a ratio of the emissions (665 nm/620 nm)*10,000. The RFU values were normalized to percent inhibition as follows:
% inhibition=(((NC−IC)−(compound−IC))/(NC−IC))*100
where IC (inhibitor control, low signal)= mean signal of 1X Tb-MCl-1+Cy5 Bim peptide+inhibitor control or 100% inhibition of Mcl-1; NC (neutral control, high signal)= mean signal 1X Tb-MCl-1+Cy5 Bim peptide with DMSO only or 0% inhibition An 11-point dose response curve was generated to determine IC50 values (using GenData) based on the following equation:
Y=Bottom+(Top−Bottom)/(1+10∧((log IC50−X)*HillSlope))
where Y=% inhibition in the presence of X inhibitor concentration; Top=100% inhibition derived from the IC (mean signal of Mcl-1+inhibitor control); Bottom=0% inhibition derived from the NC (mean signal of Mcl-1+DMSO); Hillslope=Hill coefficient; and IC50=concentration of compound with 50% inhibition in relation to top/neutral control (NC).
In this assay [L]=8 nM and Kd=10 nM

[2] = tested on: MOLP-8 human multiple myeloma cell line; experiment: Caspase-Glo 3/7 apoptosis induction assay in MOLP-8 cells; type: cell-based; settings: caspase-3/7 activity, 2 hours at 37° C., averaged over all runs on all batches, read-out: MOLP8 AC50
Description: MCL-1 is a regulator of apoptosis and is highly over-expressed in tumor cells that escape cell death. The assay evaluates the cellular potency of small-molecule compounds targeting regulators of the apoptosis pathway, primarily MCL-1, Bfl-1, Bcl-2, and other proteins of the Bcl-2 family. Protein-protein inhibitors disrupting the interaction of anti-apoptotic regulators with BH3-domain proteins initiate apoptosis.
The Caspase-Glo® 3/7 Assay is a luminescent assay that measures caspase-3 and −7 activities in purified enzyme preparations or cultures of adherent or suspension cells. The assay provides a proluminescent caspase-3/7 substrate, which contains the tetrapeptide sequence DEVD. This substrate is cleaved to release aminoluciferin, a substrate of luciferase used in the production of light. Addition of the single Caspase-Glo® 3/7 Reagent in an “add-mix-measure” format results in cell lysis, followed by caspase cleavage of the substrate and generation of a “glow-type” luminescent signal.
This assay uses the MOLP-8 human multiple myeloma cell line, which is sensitive to MCL-1 inhibition.
Cell cultures were maintained between 0.2 and 2.0×10^6 cells/mL. The cells were harvested by collection in 50 mL conical tubes. The cells were then pelleted at 500 g for 5 mins before removing supernatant and resuspension in fresh pre-warmed culture medium. The cells were counted and diluted as needed.
The assay reagent was prepared by transferring the buffer solution to the substrate vial and mixing. The solution may be stored for up to 1 week at 4° C. with negligible loss of signal.
Compounds were delivered in assay-ready plates (Proxiplate) and stored at −20° C. Assays always include 1 reference compound plate containing reference compounds. The plates were spotted with 40 nL of compounds (0.5% DMSO final in cells; serial dilution; […] highest conc. 1/3 dilution, 10 doses, duplicates). The compounds were used at room temperature and 4 μL of pre-warmed media was added to all wells except column 2 and 23. The negative control was prepared by adding 1% DMSO in media. The positive control was prepared by adding the appropriate positive control compound in final concentration of […] in media. The plate was prepared by adding 4 μL negative control to column 23, 4 μL positive control to column 2 and 4 μL cell suspension to all wells in the plate. The plate with cells was then incubated at 37° C. for 2 hours. The assay signal reagent is the Caspase-Glo solution described above, and 8 μL was added to all wells. The plates were then sealed and measured after 30 minutes.
The activity of a test compound was calculated as percent change in apoptosis induction as follows:
% Effect (AC50)=100−(sample-LC)/(HC-LC)*100
% Control=(sample/HC)*100
% Control min=(sample-LC)/(HC-LC)*100

Row | Compound | Ki [1] [nM] | AC50 ([2]; Homo sapiens, MOLP-8, 2 h) [nM] | AC50 [2] [nM]
1 | CO[C@H]1CN(C(=O)[C@H]2/C(F)=C/C[C@H](C)[C@@H](C)S(=O)(=O)NC(=O)c3ccc4c(c3)N(C[C@@H]3CCCN32)C[C@@]2(CCCc3cc(Cl)ccc32)CO4)C[C@H]1OC [Compound 60] | 0.022 | 92.3 | 
2 | C[C@@H]1[C@@H](C)C/C=C(\F)[C@@H](C(=O)N(C)CCN2CCOCC2)N2CCC[C@H]2CN2C[C@@]3(CCCc4cc(Cl)ccc43)COc3ccc(cc32)C(=O)NS1(=O)=O (single isomer, unassigned) [Compound 33] | 0.195 | 218 | 
3 | C[C@@H]1[C@@H](C)C/C=C(\F)[C@H](C(=O)N(C)Cc2ncnn2C)N2CCC[C@H]2CN2C[C@@]3(CCCc4cc(Cl)ccc43)COc3ccc(cc32)C(=O)NS1(=O)=O [Compound 81] | 0.068 | 537 | 
4 | C[C@@H]1[C@@H](C)C/C=C(\F)[C@H](C(=O)N(C)Cc2ccnn2C)N2CCC[C@H]2CN2C[C@@]3(CCCc4cc(Cl)ccc43)COc3ccc(cc32)C(=O)NS1(=O)=O [Compound 34] | 0.077 | 76.9 | 
5 | C[C@@H]1[C@@H](C)C/C=C(\F)[C@H](C(=O)N2CCOCC2)N2CCC[C@H]2CN2C[C@@]3(CCCc4cc(Cl)ccc43)COc3ccc(cc32)C(=O)NS1(=O)=O [Compound 8] | 0.074 | 141 | 
6 | C[C@@H]1[C@@H](C)C/C=C(\F)[C@H](C(=O)N2C[C@H]3C[C@@H]2CO3)N2CCC[C@H]2CN2C[C@@]3(CCCc4cc(Cl)ccc43)COc3ccc(cc32)C(=O)NS1(=O)=O [Compound 9] | 0.13 | 180 | 
7 | COCCN1CCN(C(=O)[C@H]2/C(F)=C/C[C@H](C)[C@@H](C)S(=O)(=O)NC(=O)c3ccc4c(c3)N(C[C@@H]3CCCN32)C[C@@]2(CCCc3cc(Cl)ccc32)CO4)CC1 [Compound 38] | 0.051 | 187 | 
8 | Cc1nc(CN(C)C(=O)[C@H]2/C(F)=C/C[C@H](C)[C@@H](C)S(=O)(=O)NC(=O)c3ccc4c(c3)N(C[C@@H]3CCCN32)C[C@@]2(CCCc3cc(Cl)ccc32)CO4)co1 [Compound 80] | 0.079 | 134 | 
9 | CC(C)N(C)C(=O)[C@H]1/C(F)=C/C[C@H](C)[C@@H](C)S(=O)(=O)NC(=O)c2ccc3c(c2)N(C[C@@H]2CCCN21)C[C@@]1(CCCc2cc(Cl)ccc21)CO3 [Compound 31] | 0.105 | 238 | 
10 | C[C@@H]1[C@@H](C)C/C=C(\F)[C@H](C(=O)N(C)CC2CCCOC2)N2CCC[C@H]2CN2C[C@@]3(CCCc4cc(Cl)ccc43)COc3ccc(cc32)C(=O)NS1(=O)=O (single isomer, unassigned) [Compound 64] | 0.083 | 74.7 | 
11 | C[C@@H]1[C@@H](C)C/C=C(\F)[C@H](C(=O)N(C)CCN2CCOCC2)N2CCC[C@H]2CN2C[C@@]3(CCOc4cc(Cl)ccc43)COc3ccc(cc32)C(=O)NS1(=O)=O [Compound 78] | 0.016 | 547 | 
12 | C[C@@H]1[C@@H](C)C/C=C(\F)[C@H](C(=O)N(C)CC2OCCO2)N2CCC[C@H]2CN2C[C@@]3(CCCc4cc(Cl)ccc43)COc3ccc(cc32)C(=O)NS1(=O)=O [Compound 79] | 0.038 | 106 | 
13 | C[C@@H]1[C@@H](C)C/C=C(\F)[C@H](C(=O)N2CCC3(CCCCC3)C2)N2CCC[C@H]2CN2C[C@@]3(CCCc4cc(Cl)ccc43)COc3ccc(cc32)C(=O)NS1(=O)=O [Compound 32] | 0.603 | 478 | 
14 | COCCCN(C)C(=O)[C@H]1/C(F)=C/C[C@H](C)[C@@H](C)S(=O)(=O)NC(=O)c2ccc3c(c2)N(C[C@@H]2CCCN21)C[C@@]1(CCCc2cc(Cl)ccc21)CO3 (single isomer, unassigned) [Compound 51] | 0.04 | 78.3 | 
15 | C[C@@H]1[C@@H](C)C/C=C(\F)[C@H](C(=O)N(C)CC2COCCO2)N2CCC[C@H]2CN2C[C@@]3(CCCc4cc(Cl)ccc43)COc3ccc(cc32)C(=O)NS1(=O)=O (single isomer, unassigned) [Compound 55] | 0.037 |  | 81.2
16 | C[C@@H]1[C@@H](C)C/C=C(\F)[C@H](C(=O)N2CCOC(C(F)(F)F)C2)N2CCC[C@H]2CN2C[C@@]3(CCCc4cc(Cl)ccc43)COc3ccc(cc32)C(=O)NS1(=O)=O (single isomer, unassigned) [Compound 20] | 0.255 | 193 | 
17 | C[C@@H]1CN(C(=O)[C@H]2/C(F)=C/C[C@H](C)[C@@H](C)S(=O)(=O)NC(=O)c3ccc4c(c3)N(C[C@@H]3CCCN32)C[C@@]2(CCCc3cc(Cl)ccc32)CO4)CCN1C [Compound 23] | 0.054 | 101 | 
18 | C[C@@H]1[C@@H](C)C/C=C(\F)[C@H](C(=O)N(CCO)CCN2CCOCC2)N2CCC[C@H]2CN2C[C@@]3(CCCc4cc(Cl)ccc43)COc3ccc(cc32)C(=O)NS1(=O)=O [Compound 74] | 0.02 | 436 | 
19 | C[C@@H]1[C@@H](C)C/C=C(\F)[C@H](C(=O)N(C)CC2COCCO2)N2CCC[C@H]2CN2C[C@@]3(CCCc4cc(Cl)ccc43)COc3ccc(cc32)C(=O)NS1(=O)=O (single isomer, unassigned) [Compound 54] | 0.042 | 76.4 | 
20 | C[C@@H]1[C@@H](C)C/C=C(\F)[C@H](C(=O)N(C)CCC2CCOCC2)N2CCC[C@H]2CN2C[C@@]3(CCCc4cc(Cl)ccc43)COc3ccc(cc32)C(=O)NS1(=O)=O (single isomer, unassigned) [Compound 2] | 0.089 | 89.2 | 
21 | C[C@@H]1[C@@H](C)C/C=C(\F)[C@H](C(=O)N(C)CC2CCCCO2)N2CCC[C@H]2CN2C[C@@]3(CCCc4cc(Cl)ccc43)COc3ccc(cc32)C(=O)NS1(=O)=O (single isomer, unassigned) [Compound 71] | 0.066 | 94.2 | 
